Measured values as given in PubChem BioAssay (NCI).
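96-well plates; 48 h exposure; 5 concentrations. Endpoints by linear interpolation between flanking doses. Not reached: highest tested concentration assigned. At the GI50, growth is halved. At the TGI there is no net growth.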

Assays:
Assay in all cases: growth of human tumour cells (NCI), 48 h; in the data active means GI50 below about 0.43 µM; inactive means the rest
786-0 renal = tested on: 786-0 renal
A498 renal = tested on: A498 renal
A549 NSCLC = tested on: A549 NSCLC
ACHN renal = tested on: ACHN renal
BT-549 breast = tested on: BT-549 breast
CAKI-1 renal = tested on: CAKI-1 renal
CCRF-CEM leukemia = tested on: CCRF-CEM leukemia
COLO 205 colon = tested on: COLO 205 colon
DU-145 prostate = tested on: DU-145 prostate
EKVX NSCLC = tested on: EKVX NSCLC
HCC-2998 colon = tested on: HCC-2998 colon
HCT-116 colon = tested on: HCT-116 colon
HCT-15 colon = tested on: HCT-15 colon
HL-60(TB) leukemia = tested on: HL-60(TB) leukemia
HOP-62 NSCLC = tested on: HOP-62 NSCLC
HOP-92 NSCLC = tested on: HOP-92 NSCLC
HS 578T breast = tested on: HS 578T breast
HT29 colon = tested on: HT29 colon
IGROV1 ovarian = tested on: IGROV1 ovarian
K-562 leukemia = tested on: K-562 leukemia
KM12 colon = tested on: KM12 colon
LOX IMVI melanoma = tested on: LOX IMVI melanoma
M14 melanoma = tested on: M14 melanoma
MALME-3M melanoma = tested on: MALME-3M melanoma
MCF7 breast = tested on: MCF7 breast
MDA-MB-231 breast = tested on: MDA-MB-231 breast
MDA-MB-435 = tested on: MDA-MB-435
MOLT-4 leukemia = tested on: MOLT-4 leukemia
NCI-H226 lung = tested on: NCI-H226 lung
NCI-H23 lung = tested on: NCI-H23 lung
NCI-H460 lung = tested on: NCI-H460 lung
NCI-H522 lung = tested on: NCI-H522 lung
NCI/ADR-RES ovarian = tested on: NCI/ADR-RES ovarian
OVCAR-3 ovarian = tested on: OVCAR-3 ovarian
OVCAR-4 ovarian = tested on: OVCAR-4 ovarian
OVCAR-5 ovarian = tested on: OVCAR-5 ovarian
OVCAR-8 ovarian = tested on: OVCAR-8 ovarian
PC-3 prostate = tested on: PC-3 prostate
RPMI-8226 leukemia = tested on: RPMI-8226 leukemia
RXF 393 renal = tested on: RXF 393 renal
SF-268 CNS = tested on: SF-268 CNS
SF-295 CNS = tested on: SF-295 CNS
SF-539 CNS = tested on: SF-539 CNS
SK-MEL-2 melanoma = tested on: SK-MEL-2 melanoma
SK-MEL-28 melanoma = tested on: SK-MEL-28 melanoma
SK-MEL-5 melanoma = tested on: SK-MEL-5 melanoma
SK-OV-3 ovarian = tested on: SK-OV-3 ovarian
SN12C renal = tested on: SN12C renal
SNB-19 CNS = tested on: SNB-19 CNS
SNB-75 CNS = tested on: SNB-75 CNS
SR leukemia = tested on: SR leukemia
SW-620 colon = tested on: SW-620 colon
T-47D breast = tested on: T-47D breast
TK-10 renal = tested on: TK-10 renal
U251 CNS = tested on: U251 CNS
UACC-257 melanoma = tested on: UACC-257 melanoma
UACC-62 melanoma = tested on: UACC-62 melanoma
UO-31 renal = tested on: UO-31 renal
MDA-N = tested on: MDA-N

COc1cc(NS(C)(=O)=O)ccc1Cc1c2ccccc2nc2ccccc12
961 nM: TGI (NCI-H522 lung)
2780 nM: TGI (MDA-MB-231 breast)
3350 nM: TGI (SNB-19 CNS)
active: GI50 (786-0 renal) 139 nM | GI50 (A498 renal) 135 nM | GI50 (A549 NSCLC) 16.4 nM | GI50 (ACHN renal) 46.3 nM | GI50 (BT-549 breast) 267 nM | GI50 (CAKI-1 renal) 139 nM | GI50 (CCRF-CEM leukemia) 42 nM | GI50 (COLO 205 colon) 81.2 nM | GI50 (DU-145 prostate) 57.1 nM | GI50 (HCT-116 colon) 135 nM | GI50 (HCT-15 colon) 371 nM | GI50 (HL-60(TB) leukemia) 25.8 nM | GI50 (HOP-62 NSCLC) 59 nM | GI50 (HOP-92 NSCLC) 129 nM | GI50 (HT29 colon) 300 nM | GI50 (IGROV1 ovarian) 414 nM | GI50 (K-562 leukemia) 307 nM | GI50 (KM12 colon) 396 nM | GI50 (LOX IMVI melanoma) 79.3 nM | GI50 (M14 melanoma) 158 nM | GI50 (MALME-3M melanoma) 192 nM | GI50 (MCF7 breast) 51.7 nM | GI50 (NCI-H226 lung) 107 nM | GI50 (NCI-H23 lung) 137 nM | GI50 (NCI-H460 lung) < 12 nM | GI50 (NCI-H522 lung) 71.2 nM | GI50 (OVCAR-8 ovarian) 146 nM | GI50 (RPMI-8226 leukemia) 377 nM | GI50 (RXF 393 renal) 396 nM | GI50 (SF-268 CNS) 179 nM | GI50 (SF-295 CNS) 47.5 nM | GI50 (SF-539 CNS) 118 nM | GI50 (SK-MEL-5 melanoma) 121 nM | GI50 (SK-OV-3 ovarian) 115 nM | GI50 (SN12C renal) 74.2 nM | GI50 (SNB-19 CNS) 134 nM | GI50 (SNB-75 CNS) 188 nM | GI50 (SW-620 colon) 121 nM | GI50 (T-47D breast) 53.5 nM | GI50 (TK-10 renal) 228 nM | GI50 (U251 CNS) 136 nM | GI50 (UACC-62 melanoma) 101 nM | GI50 (UO-31 renal) 126 nM
4170 nM: TGI (OVCAR-5 ovarian)
6030 nM: TGI (SF-268 CNS)
1020 nM: TGI (SK-OV-3 ovarian) | TGI (UO-31 renal)
1670 nM: TGI (UACC-62 melanoma)
2880 nM: TGI (IGROV1 ovarian)
10000 nM: TGI (NCI/ADR-RES ovarian)
1210 nM: TGI (U251 CNS)
8170 nM: TGI (HS 578T breast)
1430 nM: TGI (M14 melanoma)
139 nM: TGI (SR leukemia)
3280 nM: TGI (RPMI-8226 leukemia)
640 nM: TGI (786-0 renal)
1110 nM: TGI (ACHN renal) | TGI (SK-MEL-5 melanoma)
649 nM: TGI (DU-145 prostate)
11300 nM: TGI (MDA-MB-435)
2340 nM: TGI (SW-620 colon)
2760 nM: TGI (HCT-15 colon)
1650 nM: TGI (MALME-3M melanoma)
1060 nM: TGI (A549 NSCLC) | TGI (NCI-H460 lung)
2060 nM: TGI (OVCAR-3 ovarian) | TGI (RXF 393 renal)
3200 nM: TGI (SK-MEL-2 melanoma)
368 nM: TGI (HOP-62 NSCLC)
4240 nM: TGI (EKVX NSCLC)
inactive: GI50 (EKVX NSCLC) 993 nM | GI50 (HCC-2998 colon) 433 nM | GI50 (HS 578T breast) 1720 nM | GI50 (MDA-MB-231 breast) 1280 nM | GI50 (MDA-MB-435) 1230 nM | GI50 (NCI/ADR-RES ovarian) 1440 nM | GI50 (OVCAR-3 ovarian) 785 nM | GI50 (OVCAR-4 ovarian) 1250 nM | GI50 (OVCAR-5 ovarian) 1030 nM | GI50 (PC-3 prostate) 461 nM | GI50 (SK-MEL-2 melanoma) 1430 nM | GI50 (SK-MEL-28 melanoma) 672 nM | GI50 (UACC-257 melanoma) 493 nM
141 nM: TGI (HL-60(TB) leukemia)
2670 nM: TGI (UACC-257 melanoma)
1820 nM: TGI (HT29 colon)
1140 nM: TGI (HOP-92 NSCLC)
2350 nM: TGI (HCC-2998 colon)
1540 nM: TGI (SNB-75 CNS)
26.5 nM: TGI (MOLT-4 leukemia)
2520 nM: TGI (OVCAR-4 ovarian)
1930 nM: TGI (HCT-116 colon)
1480 nM: TGI (LOX IMVI melanoma) | TGI (NCI-H23 lung)
462 nM: TGI (NCI-H226 lung)
2010 nM: TGI (KM12 colon)
1970 nM: TGI (BT-549 breast)
2360 nM: TGI (SK-MEL-28 melanoma)
2400 nM: TGI (COLO 205 colon) | TGI (K-562 leukemia)
1370 nM: TGI (OVCAR-8 ovarian) | TGI (T-47D breast)
1530 nM: TGI (CAKI-1 renal)
1220 nM: TGI (SF-295 CNS)
1450 nM: TGI (TK-10 renal)
1170 nM: TGI (SN12C renal)
1150 nM: TGI (A498 renal) | TGI (SF-539 CNS)
751 nM: TGI (CCRF-CEM leukemia)
5000 nM: TGI (MCF7 breast)
15600 nM: TGI (PC-3 prostate)

COc1ccc(C(=O)c2nc3ccccc3nc2N2CCN(c3ccccc3)CC2)cc1OC
> 100000 nM: TGI (786-0 renal) | TGI (A498 renal) | TGI (A549 NSCLC) | TGI (ACHN renal) | TGI (CAKI-1 renal) | TGI (CCRF-CEM leukemia) | TGI (COLO 205 colon) | TGI (DU-145 prostate) | TGI (EKVX NSCLC) | TGI (HCC-2998 colon) | TGI (HCT-116 colon) | TGI (HCT-15 colon) | TGI (HL-60(TB) leukemia) | TGI (HOP-62 NSCLC) | TGI (HOP-92 NSCLC) | TGI (HS 578T breast) | TGI (HT29 colon) | TGI (IGROV1 ovarian) | TGI (K-562 leukemia) | TGI (KM12 colon) | TGI (LOX IMVI melanoma) | TGI (M14 melanoma) | TGI (MALME-3M melanoma) | TGI (MCF7 breast) | TGI (MDA-MB-435) | TGI (MDA-N) | TGI (MOLT-4 leukemia) | TGI (NCI-H23 lung) | TGI (NCI-H460 lung) | TGI (NCI-H522 lung) | TGI (NCI/ADR-RES ovarian) | TGI (OVCAR-3 ovarian) | TGI (OVCAR-4 ovarian) | TGI (OVCAR-5 ovarian) | TGI (OVCAR-8 ovarian) | TGI (PC-3 prostate) | TGI (RPMI-8226 leukemia) | TGI (RXF 393 renal) | TGI (SF-268 CNS) | TGI (SF-295 CNS) | TGI (SF-539 CNS) | TGI (SK-MEL-2 melanoma) | TGI (SK-MEL-28 melanoma) | TGI (SK-MEL-5 melanoma) | TGI (SK-OV-3 ovarian) | TGI (SNB-19 CNS) | TGI (SNB-75 CNS) | TGI (SR leukemia) | TGI (SW-620 colon) | TGI (T-47D breast) | TGI (TK-10 renal) | TGI (U251 CNS) | TGI (UACC-257 melanoma) | TGI (UACC-62 melanoma) | TGI (UO-31 renal)
